Experimental data reported in ChEMBL document CHEMBL1201862, “PubChem BioAssay data set” (2004).
Activity calls are given as the source filed them.

How the values were obtained:
[1] = target: T1, Type-1 angiotensin II receptor (Homo sapiens, UniProt P30556); assay: agonist activity at AGTR1 – cell-based, uHTS hits, selectivity assay for APJ receptor agonist project, dose response (AID 488865); type: functional;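 note: beta-arrestin recruitment to AT1 measured by enzyme fragment complementation luminescence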
T1 sequence (P30556 whole entry): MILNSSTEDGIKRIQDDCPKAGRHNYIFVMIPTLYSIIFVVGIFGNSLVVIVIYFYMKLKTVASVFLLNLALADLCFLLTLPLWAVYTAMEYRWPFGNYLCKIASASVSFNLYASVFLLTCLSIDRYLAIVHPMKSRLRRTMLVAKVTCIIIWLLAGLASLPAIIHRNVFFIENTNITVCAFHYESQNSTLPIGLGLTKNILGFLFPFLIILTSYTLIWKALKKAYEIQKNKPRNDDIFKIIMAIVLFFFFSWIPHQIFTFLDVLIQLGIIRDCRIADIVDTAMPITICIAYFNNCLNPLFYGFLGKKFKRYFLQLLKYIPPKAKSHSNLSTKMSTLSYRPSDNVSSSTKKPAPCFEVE

[2] = target: Intestinal-type alkaline phosphatase (Homo sapiens, UniProt P09923); assay: human intestinal alkaline phosphatase activators, dose response, biochemical, luminescence, uHTS hits (AID 463120); type: functional
Intestinal-type alkaline phosphatase, sequence (P09923 whole entry): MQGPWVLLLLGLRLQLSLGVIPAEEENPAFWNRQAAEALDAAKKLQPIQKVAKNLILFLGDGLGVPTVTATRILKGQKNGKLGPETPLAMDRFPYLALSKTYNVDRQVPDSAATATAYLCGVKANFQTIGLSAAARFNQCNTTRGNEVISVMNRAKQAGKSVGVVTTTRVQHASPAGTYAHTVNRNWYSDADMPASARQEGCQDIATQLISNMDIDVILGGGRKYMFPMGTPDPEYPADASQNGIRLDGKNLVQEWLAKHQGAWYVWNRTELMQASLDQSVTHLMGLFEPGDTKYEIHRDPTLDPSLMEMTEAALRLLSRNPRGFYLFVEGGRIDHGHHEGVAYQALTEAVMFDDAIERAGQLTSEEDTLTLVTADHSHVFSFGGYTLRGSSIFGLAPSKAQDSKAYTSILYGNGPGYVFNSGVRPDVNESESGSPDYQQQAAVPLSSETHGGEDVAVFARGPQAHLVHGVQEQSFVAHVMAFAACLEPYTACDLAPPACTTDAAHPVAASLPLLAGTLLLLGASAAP

[3] = NIH-3T3 fibroblast cytotoxicity, dose response, cytotoxicity control, cell-based, fluorescence, Alamar Blue, secondary assay (AID 2327); type: functional;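 note: NIH-3T3 mouse fibroblasts cultured with fluconazole at 8 µg/mL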
[4] = luciferase reporter signal suppression in cells – H4 neuroglioma cells, luminescence, dose response (AID 1990); type: functional, cell-based
BJ [5] = assay: BJ-TERT fibroblast viability loss – cell-based, RAS-independent, luminescence, dose response (AID 1933); type: functional; details: Homo sapiens
[6] = Luminescence Cell-Based Dose Response HTS to Identify Inhibitors of 5'UTR Stem-Loop Driven Prion Protein mRNA Translation in H4 Neuroglioblastoma Cells. [Related pubchem assays: 1827 (Project Summary), 1813 (Primary HTS)]; type: functional
[7] = alpha-synuclein stem-loop luciferase translation blockers – H4 neuroglioma cells, luminescence, confirmation (AID 1988); type: functional, cell-based
BJ [8] = assay: cells; type: functional, cell-based; details: Homo sapiens
[9] = fluconazole-exposed Candida albicans growth modulators – fluorescence, retest, confirmation (AID 2467); type: functional, cell-based
[10] = DRD fibroblast viability loss – cell-based, non-viral oncogenic, luminescence, dose response (AID 1934); type: functional; details: Homo sapiens
Hexokinase HKDC1 = target: T2, Hexokinase HKDC1 (Homo sapiens, UniProt Q2TB90); assay: activation of HKDC1 glucose phosphorylation – biochemical, W721R variant, dose response (AID 504730); type: functional
T2 sequence (Q2TB90 whole entry): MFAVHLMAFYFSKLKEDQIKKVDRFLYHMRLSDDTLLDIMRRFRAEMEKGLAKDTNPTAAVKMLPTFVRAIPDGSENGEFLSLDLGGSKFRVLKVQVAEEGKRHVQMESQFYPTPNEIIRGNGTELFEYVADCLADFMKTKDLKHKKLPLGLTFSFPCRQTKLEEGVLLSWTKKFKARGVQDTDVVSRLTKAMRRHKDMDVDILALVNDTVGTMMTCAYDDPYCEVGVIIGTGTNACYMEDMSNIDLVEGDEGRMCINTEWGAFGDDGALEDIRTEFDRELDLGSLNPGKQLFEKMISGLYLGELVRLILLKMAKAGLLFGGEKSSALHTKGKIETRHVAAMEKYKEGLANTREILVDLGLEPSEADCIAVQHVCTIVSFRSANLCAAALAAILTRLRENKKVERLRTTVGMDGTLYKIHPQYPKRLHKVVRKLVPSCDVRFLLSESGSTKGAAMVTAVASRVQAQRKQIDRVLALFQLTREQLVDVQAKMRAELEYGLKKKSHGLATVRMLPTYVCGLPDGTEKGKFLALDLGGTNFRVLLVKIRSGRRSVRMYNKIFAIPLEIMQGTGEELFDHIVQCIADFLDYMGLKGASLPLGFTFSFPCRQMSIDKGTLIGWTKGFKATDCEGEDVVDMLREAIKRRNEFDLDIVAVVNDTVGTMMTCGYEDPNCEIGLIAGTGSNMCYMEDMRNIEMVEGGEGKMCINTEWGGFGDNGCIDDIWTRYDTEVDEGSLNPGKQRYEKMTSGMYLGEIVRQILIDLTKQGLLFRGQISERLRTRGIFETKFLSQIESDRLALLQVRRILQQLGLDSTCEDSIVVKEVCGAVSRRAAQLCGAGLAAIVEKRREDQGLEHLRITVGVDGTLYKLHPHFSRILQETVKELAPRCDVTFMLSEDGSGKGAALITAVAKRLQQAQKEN

[11] = HEK-293T viability loss after treatment – luminescence, T-cell screen hits, cytotoxicity control for TCR NF-kB inhibitor project, dose response (AID 489026); type: functional, cell-based;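 note: cells exposed to compound about 14 hours before the viability readout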
Hexokinase-1 = Hexokinase-1 (Homo sapiens, UniProt P19367); assay: HK1 enzyme activation by HKDC1 hits – biochemical, selectivity assay for HKDC1 activator project, dose response (AID 504762); type: functional
Hexokinase-1, sequence (P19367 whole entry): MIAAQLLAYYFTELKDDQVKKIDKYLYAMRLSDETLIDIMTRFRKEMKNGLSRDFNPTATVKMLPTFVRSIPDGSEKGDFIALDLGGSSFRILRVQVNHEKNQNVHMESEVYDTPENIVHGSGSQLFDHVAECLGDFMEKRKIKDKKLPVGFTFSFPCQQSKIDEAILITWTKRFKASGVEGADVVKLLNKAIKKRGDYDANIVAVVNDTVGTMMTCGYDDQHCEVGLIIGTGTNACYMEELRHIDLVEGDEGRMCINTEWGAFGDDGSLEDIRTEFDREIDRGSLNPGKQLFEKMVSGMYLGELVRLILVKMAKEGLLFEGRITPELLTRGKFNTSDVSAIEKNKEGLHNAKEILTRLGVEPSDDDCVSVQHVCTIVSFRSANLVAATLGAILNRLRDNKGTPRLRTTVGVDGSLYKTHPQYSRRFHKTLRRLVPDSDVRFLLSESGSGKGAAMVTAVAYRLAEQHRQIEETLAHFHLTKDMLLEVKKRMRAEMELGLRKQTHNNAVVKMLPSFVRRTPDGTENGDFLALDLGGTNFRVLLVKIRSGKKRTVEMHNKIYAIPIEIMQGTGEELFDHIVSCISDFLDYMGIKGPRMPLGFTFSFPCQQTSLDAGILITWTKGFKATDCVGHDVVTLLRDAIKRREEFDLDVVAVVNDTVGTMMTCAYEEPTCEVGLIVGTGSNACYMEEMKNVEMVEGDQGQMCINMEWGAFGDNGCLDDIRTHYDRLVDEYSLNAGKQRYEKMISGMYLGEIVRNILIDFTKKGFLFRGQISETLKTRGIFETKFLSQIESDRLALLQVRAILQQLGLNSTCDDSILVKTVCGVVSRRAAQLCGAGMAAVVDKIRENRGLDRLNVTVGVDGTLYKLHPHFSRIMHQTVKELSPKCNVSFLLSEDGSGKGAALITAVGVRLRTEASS

HEK293 = assay: EBV LMP1 TES2 canonical NF-kB signalling blockers – cell-based, HEK293, luciferase, cherry-pick, dose response (AID 588343); type: functional; details: Homo sapiens
[12] = target: T3, Apoptotic protease-activating factor 1 (Homo sapiens, UniProt O14727); type: functional
T3 sequence (O14727 whole entry): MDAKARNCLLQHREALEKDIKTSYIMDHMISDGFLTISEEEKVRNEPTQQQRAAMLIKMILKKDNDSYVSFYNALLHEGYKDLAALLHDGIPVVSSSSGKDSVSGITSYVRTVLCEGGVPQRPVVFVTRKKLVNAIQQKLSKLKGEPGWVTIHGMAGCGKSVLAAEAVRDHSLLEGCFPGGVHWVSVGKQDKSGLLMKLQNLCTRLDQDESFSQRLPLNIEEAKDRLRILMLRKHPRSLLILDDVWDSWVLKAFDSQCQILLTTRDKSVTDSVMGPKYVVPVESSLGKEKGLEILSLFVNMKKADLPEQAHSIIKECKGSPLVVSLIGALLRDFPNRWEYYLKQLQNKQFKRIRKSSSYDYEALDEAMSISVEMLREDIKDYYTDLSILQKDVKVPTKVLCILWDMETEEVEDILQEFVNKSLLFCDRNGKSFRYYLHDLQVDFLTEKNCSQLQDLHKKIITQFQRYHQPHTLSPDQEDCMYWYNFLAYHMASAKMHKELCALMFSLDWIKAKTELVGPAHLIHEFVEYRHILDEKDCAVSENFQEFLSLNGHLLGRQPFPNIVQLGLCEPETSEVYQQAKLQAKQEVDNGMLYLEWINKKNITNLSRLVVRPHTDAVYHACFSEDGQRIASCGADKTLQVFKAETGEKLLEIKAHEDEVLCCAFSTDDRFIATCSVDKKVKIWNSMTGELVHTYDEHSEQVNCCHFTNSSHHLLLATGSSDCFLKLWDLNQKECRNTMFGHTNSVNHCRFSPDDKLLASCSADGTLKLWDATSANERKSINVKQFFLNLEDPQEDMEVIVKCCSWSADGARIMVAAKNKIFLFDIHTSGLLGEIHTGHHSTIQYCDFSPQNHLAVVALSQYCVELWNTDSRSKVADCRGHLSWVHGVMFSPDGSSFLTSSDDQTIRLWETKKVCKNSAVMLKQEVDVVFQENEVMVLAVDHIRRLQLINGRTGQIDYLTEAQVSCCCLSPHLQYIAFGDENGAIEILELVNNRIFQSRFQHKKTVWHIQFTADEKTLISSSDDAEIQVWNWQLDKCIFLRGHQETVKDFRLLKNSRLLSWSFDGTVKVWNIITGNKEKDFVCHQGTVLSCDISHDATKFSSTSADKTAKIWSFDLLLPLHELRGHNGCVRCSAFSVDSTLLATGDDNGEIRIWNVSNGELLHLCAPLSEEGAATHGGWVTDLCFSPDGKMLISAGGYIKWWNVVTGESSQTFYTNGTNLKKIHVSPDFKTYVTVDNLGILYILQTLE

BJ [13] = assay: growth inhibition of engineered Ras-driven BJ cells – cell-based, alamar blue fluorescence, cherrypicked samples, dose response (AID 2631); type: functional; details: Homo sapiens;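 note: confirmatory dose-response assay in RAS-dependent BJ fibroblasts engineered with TERT, LT and ST, with cytotoxicity read by fluorescence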
INS1 = assay: INS-1E survival protection against cytokine death – cell-based, luminescence, retest, dose response (AID 449756); type: functional; details: Rattus norvegicus;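 note: cell death triggered by IL-1 beta plus TNF-alpha plus IFN-gamma mixture; protective hits raise ATP signal compared with cytokine alone wells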
[14] = antiviral efficacy against SV40, host toxicity – BSC cells, set 3, confirmation (AID 485276); type: functional, cell-based
Large T antigen = Large T antigen (Simian virus 40, UniProt P03070); assay: A confirmatory biochemical assay using the ADP-Hunter methodology, purified TAg, and ATP to quantify activity of synthesized compounds that inhibit the ATPase activity of Tag (3). [Related pubchem assays (depositor defined):AID1903, AID1909, AID2102, AID2501, AID2615, AID2775, AID435001, AID449729]; design: species or system Betapolyomavirus macacae
Large T antigen, sequence (P03070 whole entry): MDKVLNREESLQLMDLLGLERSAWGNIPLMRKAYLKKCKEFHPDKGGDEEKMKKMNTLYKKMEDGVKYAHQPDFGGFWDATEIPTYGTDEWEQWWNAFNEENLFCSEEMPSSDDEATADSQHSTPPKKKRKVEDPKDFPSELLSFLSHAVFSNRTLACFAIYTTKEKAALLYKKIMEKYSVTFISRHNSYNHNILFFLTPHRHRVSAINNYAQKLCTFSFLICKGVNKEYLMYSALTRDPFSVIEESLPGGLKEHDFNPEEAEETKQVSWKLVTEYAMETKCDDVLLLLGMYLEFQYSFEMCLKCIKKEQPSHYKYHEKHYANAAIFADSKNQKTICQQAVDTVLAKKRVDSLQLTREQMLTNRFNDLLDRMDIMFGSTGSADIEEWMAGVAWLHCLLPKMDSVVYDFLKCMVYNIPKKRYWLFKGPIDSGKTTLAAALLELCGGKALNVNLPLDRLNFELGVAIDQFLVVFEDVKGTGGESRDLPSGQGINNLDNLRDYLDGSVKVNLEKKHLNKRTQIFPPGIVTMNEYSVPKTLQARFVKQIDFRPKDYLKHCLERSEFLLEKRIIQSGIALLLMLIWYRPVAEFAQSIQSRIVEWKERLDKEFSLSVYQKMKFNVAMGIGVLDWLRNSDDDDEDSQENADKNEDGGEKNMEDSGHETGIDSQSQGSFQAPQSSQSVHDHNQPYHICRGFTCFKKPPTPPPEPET

Troponin, cardiac muscle = Troponin, cardiac muscle (Homo sapiens, UniProt P19429+P45379+P63316); assay: Fluorescence-based biochemical high throughput dose response assay for activators of the calcium sensitivity of cardiac Regulated Thin Filaments (RTF). [Related pubchem assays (depositor defined):AID493008, AID493018, AID504382, AID504383]; type: protein-complex assay
[15] = target: T4, Corticotropin-releasing factor receptor 2/Corticotropin-releasing factor-binding protein (Homo sapiens, UniProt P24387+Q13324); assay: activators of CRF receptor 2 with binding protein – uHTS hits, confirmation (AID 602473); type: functional; details: read-out: EC50_Mean
T4 sequence (Q13324 whole entry): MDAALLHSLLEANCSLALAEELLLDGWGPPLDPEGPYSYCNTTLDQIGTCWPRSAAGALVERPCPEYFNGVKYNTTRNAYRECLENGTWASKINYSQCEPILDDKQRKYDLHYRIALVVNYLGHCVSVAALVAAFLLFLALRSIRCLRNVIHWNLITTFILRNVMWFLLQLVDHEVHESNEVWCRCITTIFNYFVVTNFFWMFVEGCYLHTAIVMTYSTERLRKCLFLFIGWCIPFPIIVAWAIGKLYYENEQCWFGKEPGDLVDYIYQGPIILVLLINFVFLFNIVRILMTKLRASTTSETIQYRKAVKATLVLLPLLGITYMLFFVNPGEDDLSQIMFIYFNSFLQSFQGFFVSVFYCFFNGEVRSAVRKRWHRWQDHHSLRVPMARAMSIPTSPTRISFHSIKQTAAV
T4 sequence (P24387 whole entry): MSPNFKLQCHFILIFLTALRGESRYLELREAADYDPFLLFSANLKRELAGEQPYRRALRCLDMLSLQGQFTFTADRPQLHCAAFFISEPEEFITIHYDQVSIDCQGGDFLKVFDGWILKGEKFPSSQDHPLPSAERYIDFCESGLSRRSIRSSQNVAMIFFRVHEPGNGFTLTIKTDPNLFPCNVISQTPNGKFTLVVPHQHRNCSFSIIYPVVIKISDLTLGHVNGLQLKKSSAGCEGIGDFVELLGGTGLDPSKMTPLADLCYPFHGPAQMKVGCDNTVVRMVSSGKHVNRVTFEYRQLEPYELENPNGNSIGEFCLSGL

[16] = target: Sphingosine 1-phosphate receptor 1 (Homo sapiens, UniProt P21453); assay: Fluorescence-based counterscreen assay for S1P4 agonists: Cell-based dose response high throughput screening assay to identify agonists of the Sphingosine 1-Phosphate Receptor 1 (S1P1). [Related pubchem assays (depositor defined):AID1509, AID1523, AID1801, AID463107, AID463118, AID463119, AID463122, AID463123, AID463129, AID463225, AID504400, AID504460]; type: functional
Sphingosine 1-phosphate receptor 1, sequence (P21453 whole entry): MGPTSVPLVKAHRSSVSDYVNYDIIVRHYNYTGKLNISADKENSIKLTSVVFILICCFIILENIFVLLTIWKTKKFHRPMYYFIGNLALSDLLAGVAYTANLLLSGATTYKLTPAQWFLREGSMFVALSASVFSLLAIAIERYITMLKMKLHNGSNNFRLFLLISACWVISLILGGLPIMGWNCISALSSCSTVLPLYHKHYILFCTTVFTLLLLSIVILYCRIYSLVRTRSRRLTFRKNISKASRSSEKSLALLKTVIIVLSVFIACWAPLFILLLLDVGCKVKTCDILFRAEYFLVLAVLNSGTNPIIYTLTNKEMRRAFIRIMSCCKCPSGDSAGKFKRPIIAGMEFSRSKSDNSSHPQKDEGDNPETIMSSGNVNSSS

[17] = target: Luciferin 4-monooxygenase (Photinus pyralis, UniProt P08659); assay: Counter Screen for Luciferase-based Assay Positives. [Related pubchem assays: 620, 618, 411 ]
Luciferin 4-monooxygenase, sequence (P08659 whole entry): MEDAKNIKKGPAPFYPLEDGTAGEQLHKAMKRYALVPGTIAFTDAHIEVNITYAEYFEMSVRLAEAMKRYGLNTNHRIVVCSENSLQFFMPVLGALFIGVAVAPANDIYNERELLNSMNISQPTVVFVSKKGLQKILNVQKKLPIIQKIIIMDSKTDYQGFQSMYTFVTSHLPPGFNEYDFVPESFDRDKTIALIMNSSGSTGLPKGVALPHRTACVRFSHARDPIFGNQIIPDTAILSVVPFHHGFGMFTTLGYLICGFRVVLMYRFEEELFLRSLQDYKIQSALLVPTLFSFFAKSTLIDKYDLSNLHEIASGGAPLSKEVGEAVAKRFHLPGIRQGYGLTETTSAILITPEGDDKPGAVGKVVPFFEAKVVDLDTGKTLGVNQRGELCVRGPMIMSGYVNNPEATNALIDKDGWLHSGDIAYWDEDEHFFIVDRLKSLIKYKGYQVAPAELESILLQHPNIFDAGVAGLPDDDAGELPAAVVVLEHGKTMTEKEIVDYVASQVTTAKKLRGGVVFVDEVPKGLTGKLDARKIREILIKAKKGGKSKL

[18] = target: Sphingosine 1-phosphate receptor 4 (Homo sapiens, UniProt O95977); assay: Fluorescence dose response cell-based high throughput screening assay for agonists of the Sphingosine 1-Phosphate Receptor 4 (S1P4). [Related pubchem assays: 1509 (Primary screen.), 1523 (Confirmation screen in triplicates.)]; type: functional
Sphingosine 1-phosphate receptor 4, sequence (O95977 whole entry): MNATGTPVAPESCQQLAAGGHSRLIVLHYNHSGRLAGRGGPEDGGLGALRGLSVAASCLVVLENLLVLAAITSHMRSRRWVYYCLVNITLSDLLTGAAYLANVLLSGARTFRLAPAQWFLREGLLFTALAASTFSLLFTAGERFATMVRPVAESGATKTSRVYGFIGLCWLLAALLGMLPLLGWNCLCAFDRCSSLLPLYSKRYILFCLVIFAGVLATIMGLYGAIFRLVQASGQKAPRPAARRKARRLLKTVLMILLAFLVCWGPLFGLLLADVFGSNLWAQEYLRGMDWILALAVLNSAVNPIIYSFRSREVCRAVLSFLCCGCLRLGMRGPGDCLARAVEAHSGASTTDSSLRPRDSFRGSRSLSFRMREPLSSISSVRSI

[19] = viability of PTEN-deleted HCT116 cells – cell-based, HCT116 PTEN knockout, dose response (AID 1047); type: functional;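 note: HCT116 colon tumor cells with PTEN knocked out; cells exposed to compound for 60 hours before readout; potency for loss of cell viability measured by luminescence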
HT-1080 = assay: HT1080 cell viability loss – fluorescence readout (AID 620); type: functional, cell-based; details: Homo sapiens
[20] = viability of HCT116 lacking mutant beta-catenin – cell-based, human colon tumor, dose response (AID 1045); type: functional;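 note: HCT116 colon tumor cells with beta catenin knocked out; cells exposed to compound for 60 hours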
[21] = target: Sphingosine 1-phosphate receptor 2 (Homo sapiens, UniProt O95136); assay: Dose Response Cell Based Assay for Agonists of the S1P2 Receptor. [Related pubchem assays: 729, 736, 843 ]; type: functional
Sphingosine 1-phosphate receptor 2, sequence (O95136 whole entry): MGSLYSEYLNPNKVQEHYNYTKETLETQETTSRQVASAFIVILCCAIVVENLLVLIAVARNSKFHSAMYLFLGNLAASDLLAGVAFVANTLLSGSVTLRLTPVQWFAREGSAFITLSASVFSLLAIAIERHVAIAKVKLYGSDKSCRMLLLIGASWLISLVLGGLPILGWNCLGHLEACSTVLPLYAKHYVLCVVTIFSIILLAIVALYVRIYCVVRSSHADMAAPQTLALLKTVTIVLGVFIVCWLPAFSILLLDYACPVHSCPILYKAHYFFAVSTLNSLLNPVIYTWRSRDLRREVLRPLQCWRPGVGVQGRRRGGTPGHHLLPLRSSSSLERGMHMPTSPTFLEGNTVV

CCCCC1=CC2=CC(=O)C(C)(OC(=O)CC)C(=O)C2=CN1c1ccccc1 (stereo not drawn)
EC50 [1]: > 100 µM (inactive)

CCC1CCCCN1C1Sc2ccc(C(=O)OC)cc2NC1=O (stereo not drawn)
EC50 [2]: > 100 µM (inactive)

Cc1[nH]n(-c2ccccc2)c(=O)c1/C=N/Nc1nncc(-c2ccccc2)n1
EC50 [3]: 2.32 µM (active) | EC50 [4]: 0.733 µM (active) | EC50 (BJ [5]): 2.76 µM (active) | EC50 [6]: 0.155 µM (active) | EC50 [7]: 0.173 µM (active) | EC50 (BJ [8]): 3.06 µM (active) | EC50 [9]: 2.54 µM (active) | EC50 [10]: 2.39 µM (active) | EC50 (Hexokinase HKDC1): 6.69 µM (active) | IC50 [11]: > 80 µM (inactive) | EC50 (Hexokinase-1): > 80 µM (inactive) | AC50 (HEK293): 2.45 µM (active) | IC50 [12]: 3.5 µM (active) | EC50 (BJ [13]): 0.471 µM (inconclusive) | AC50 (INS1): 0.394 µM (active)

CC(C)c1cc(C(C)(C)c2ccc(O)c(C(C)C)c2)ccc1O
IC50 [14]: 11.9 µM (active) | IC50 (Large T antigen): 26.7 µM (active)

CCOC(=O)c1sc(-c2ccc(F)cc2)cc1NC(=O)Nc1ccccc1OC
EC50 (Troponin, cardiac muscle): > 71.4 µM (inactive) | EC50 [15]: > 53 µM (inactive)

CN(C)CCCNS(=O)(=O)c1ccc(N2CCC(c3ccc(Cl)cc3)=N2)cc1
EC50 [16]: > 0.614 µM (active) | EC50 [17]: 1.04 µM (active) | EC50 [18]: > 0.614 µM (active) | EC50 [19]: 4.53 µM (active) | EC50 (HT-1080): 14.4 µM (active) | EC50 [20]: 4.67 µM (active) | EC50 [21]: 0.338 µM (active)
